Reference: BigSolDB 2.1

Nc1ccc(C(=O)[O-])cc1.[K+]
Details	solubility (mole fraction)
in DMF, 283.15 K	0.00143
in DMF, 293.15 K	0.00146
in DMF, 303.15 K	0.00153
in DMF, 313.15 K	0.00154
in DMF, 323.15 K	0.00159
in DMF, 333.15 K	0.00161
in ethanol, 283.15 K	0.00224
in ethanol, 293.15 K	0.00232
in ethanol, 303.15 K	0.00238
in ethanol, 313.15 K	0.00244
in ethanol, 323.15 K	0.0025
in ethanol, 333.15 K	0.00252
in ethyl acetate, 283.15 K	0.000198
in ethyl acetate, 293.15 K	0.000205
in ethyl acetate, 303.15 K	0.000211
in ethyl acetate, 313.15 K	0.000216
in ethyl acetate, 323.15 K	0.000219
in ethylene glycol, 283.15 K	0.0973
in ethylene glycol, 293.15 K	0.115
in ethylene glycol, 303.15 K	0.127
in ethylene glycol, 313.15 K	0.145
in ethylene glycol, 323.15 K	0.156
in ethylene glycol, 333.15 K	0.172
in formamide, 283.15 K	0.0794
in formamide, 293.15 K	0.0929
in formamide, 303.15 K	0.104
in formamide, 313.15 K	0.112
in formamide, 323.15 K	0.119
in formamide, 333.15 K	0.125
in isopropanol, 283.15 K	0.000366
in isopropanol, 293.15 K	0.000416
in isopropanol, 303.15 K	0.000486
in isopropanol, 313.15 K	0.000496
in isopropanol, 323.15 K	0.00052
in isopropanol, 333.15 K	0.000556
in n-propanol, 283.15 K	0.000852
in n-propanol, 293.15 K	0.000874
in n-propanol, 303.15 K	0.000884
in n-propanol, 313.15 K	0.000929
in n-propanol, 323.15 K	0.000952
in n-propanol, 333.15 K	0.000981
in water, 278.15 K	0.092
in water, 288.15 K	0.11
in water, 298.15 K	0.125
in water, 308.15 K	0.144
in water, 318.15 K	0.161
in water, 328.15 K	0.177
in water, 338.15 K	0.194
